Tests used:
[1] = target: T1, Acetylcholinesterase (Homo sapiens, UniProt P22303); test: Inhibition of human erythrocytes AChE using acetylthiocholine iodide as substrate preincubated for 5 mins followed by substrate addition measured every min for 10 mins by Ellman's method
[2] = Apparent permeability from apical to basolateral side in human Caco2 cells assessed as drug recovery at 10 uM at pH 7.4 measured after 60 mins by HPLC-MS/MS method; assay type: ADME, cell-based; conditions: Caco-2, pH 7.4, read-out: Drug recovery
[3] = Apparent permeability from apical to basolateral side in human Caco2 cells at 10 uM at pH 7.4 measured after 60 mins by HPLC-MS/MS method; assay type: ADME, cell-based; conditions: Caco-2, pH 7.4
[4] = target: T1, Acetylcholinesterase; test: Inhibition of human erythrocytes AChE at 10^-5 M using acetylthiocholine iodide as substrate preincubated for 5 mins followed by substrate addition measured every min for 10 mins by Ellman's method
[5] = target: T1, Acetylcholinesterase; test: Displacement of propidium iodide from PAS of human AChE after 6 hrs by fluorescence assay
[6] = target: T2, Acetylcholinesterase (Bos taurus, UniProt P23795); test: Inhibition of bovine erythrocytes AChE using acetylthiocholine iodide as substrate by Ellman's method
T2 sequence (P23795 whole entry): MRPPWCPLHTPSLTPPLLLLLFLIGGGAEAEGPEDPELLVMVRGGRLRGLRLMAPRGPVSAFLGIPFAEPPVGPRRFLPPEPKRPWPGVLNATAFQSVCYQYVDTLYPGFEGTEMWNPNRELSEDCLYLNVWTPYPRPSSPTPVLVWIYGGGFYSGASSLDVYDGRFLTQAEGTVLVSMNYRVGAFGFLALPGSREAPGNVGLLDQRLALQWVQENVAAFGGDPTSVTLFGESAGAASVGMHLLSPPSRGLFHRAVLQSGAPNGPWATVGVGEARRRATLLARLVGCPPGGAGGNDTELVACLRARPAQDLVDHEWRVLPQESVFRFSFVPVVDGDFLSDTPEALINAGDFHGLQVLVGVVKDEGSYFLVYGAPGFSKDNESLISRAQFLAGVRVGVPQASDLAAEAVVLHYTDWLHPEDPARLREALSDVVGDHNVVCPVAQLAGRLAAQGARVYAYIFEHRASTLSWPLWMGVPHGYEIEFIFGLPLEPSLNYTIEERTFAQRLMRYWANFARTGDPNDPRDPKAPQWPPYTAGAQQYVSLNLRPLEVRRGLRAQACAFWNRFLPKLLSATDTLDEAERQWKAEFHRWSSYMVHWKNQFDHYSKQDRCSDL

[7] = target: Amyloid-beta precursor protein (Homo sapiens) (UniProt P05067); test: Inhibition of self-induced aggregation of amyloid beta (1 to 42 residues) (unknown origin) at 10 uM measured every 5 mins by Thioflavin T dye based fluorescence assay relative to control
Amyloid-beta precursor protein (Homo sapiens), sequence (P05067 whole entry, the tested form may be a part): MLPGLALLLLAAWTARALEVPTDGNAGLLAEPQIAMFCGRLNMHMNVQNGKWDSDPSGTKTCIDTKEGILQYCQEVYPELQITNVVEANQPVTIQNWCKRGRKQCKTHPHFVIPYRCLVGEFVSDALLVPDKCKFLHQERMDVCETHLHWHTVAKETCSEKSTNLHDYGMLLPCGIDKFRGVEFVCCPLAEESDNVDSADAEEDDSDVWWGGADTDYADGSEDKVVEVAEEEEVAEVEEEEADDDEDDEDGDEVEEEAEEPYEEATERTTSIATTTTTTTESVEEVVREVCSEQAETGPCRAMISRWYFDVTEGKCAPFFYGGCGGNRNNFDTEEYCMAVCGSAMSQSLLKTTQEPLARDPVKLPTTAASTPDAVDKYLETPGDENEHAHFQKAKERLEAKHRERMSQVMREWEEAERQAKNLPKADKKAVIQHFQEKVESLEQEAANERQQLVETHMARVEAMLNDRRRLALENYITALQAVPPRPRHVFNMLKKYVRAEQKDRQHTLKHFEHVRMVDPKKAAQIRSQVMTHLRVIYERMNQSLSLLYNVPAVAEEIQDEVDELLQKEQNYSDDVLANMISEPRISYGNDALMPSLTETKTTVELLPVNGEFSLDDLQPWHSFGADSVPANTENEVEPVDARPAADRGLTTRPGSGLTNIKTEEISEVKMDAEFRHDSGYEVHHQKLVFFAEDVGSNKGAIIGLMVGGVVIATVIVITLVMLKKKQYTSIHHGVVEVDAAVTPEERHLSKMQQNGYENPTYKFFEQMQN

T1 sequence (P22303 whole entry): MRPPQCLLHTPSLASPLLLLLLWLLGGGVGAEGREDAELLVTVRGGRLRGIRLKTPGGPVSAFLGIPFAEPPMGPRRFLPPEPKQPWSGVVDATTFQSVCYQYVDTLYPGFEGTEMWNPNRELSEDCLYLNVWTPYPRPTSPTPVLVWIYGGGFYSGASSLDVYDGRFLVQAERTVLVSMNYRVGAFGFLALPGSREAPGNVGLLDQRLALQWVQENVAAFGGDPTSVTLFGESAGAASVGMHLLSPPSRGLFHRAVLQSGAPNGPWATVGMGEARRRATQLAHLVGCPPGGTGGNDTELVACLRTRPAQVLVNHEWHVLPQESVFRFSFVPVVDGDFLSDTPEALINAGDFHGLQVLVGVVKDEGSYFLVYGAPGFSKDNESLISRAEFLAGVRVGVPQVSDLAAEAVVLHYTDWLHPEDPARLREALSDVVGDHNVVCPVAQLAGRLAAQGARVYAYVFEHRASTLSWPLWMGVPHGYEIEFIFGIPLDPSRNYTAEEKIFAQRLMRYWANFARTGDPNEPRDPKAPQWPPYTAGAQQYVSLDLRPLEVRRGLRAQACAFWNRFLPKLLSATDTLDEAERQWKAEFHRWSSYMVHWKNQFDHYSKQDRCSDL

| SMILES | IC50 [1] [nM] | other results |
| --- | --- | --- |
| CC(C)NC(=O)c1cc2c(OC(=O)N(C)C)cccc2[n+](C)c1 | 58 |  |
| CNC(=O)c1cc2c(OC(=O)N(C)C)cccc2[n+](Cc2ccccc2)c1 | 1160 |  |
| Cc1c(C(=O)N(C)C)c(C)[n+](C)c2cccc(OC(=O)N(C)C)c12 | > 10000 |  |
| COC(=O)CNC(=O)c1cc2c(OC(=O)N(C)C)cccc2[n+](C)c1 | 93 |  |
| CC(C)NC(=O)c1cc2c(OC(=O)N3CCCC3)cccc2[n+](C)c1 | > 10000 |  |
| CN(C)C(=O)Oc1cccc2c1cc(C(=O)N(C)C)c[n+]2C | 154 |  |
| CN(C)C(=O)Oc1cccc2c1CC(C(=O)NCCOCCOCCN1C(=O)c3ccccc3C1=O)=CN2C | > 10000 | recovery at 1 h, 10 µM [2]: 91%; Papp A→B at 1 h, 10 µM [3]: 11.1 ×10⁻⁶ cm/s |
| CNC(=O)c1cc2c(OC(=O)N(C)C)cccc2[n+](C)c1 | 77 |  |
| Cc1c(C(=O)N(C)C)cc2c(OC(=O)N(C)C)cccc2[n+]1C | > 10000 |  |
| C[n+]1cc(C(=O)NCCOCCOCCN2C(=O)c3ccccc3C2=O)cc2c(O)cccc21 | > 10000 | inhibition [4]: 35% |
| CCN(C)C(=O)Oc1cccc2c1cc(C(=O)NC(C)C)c[n+]2C | > 10000 |  |
| CN(C)C(=O)Oc1cccc2c1cc(C(=O)NCCOCCOCCN1C(=O)c3ccccc3C1=O)c[n+]2C | 6 | Activity [5]: 20%; IC50 [6]: 6 nM; inhibition [7]: 14% |
| CN(C)C(=O)Oc1cccc2c1cc(C(=O)NC1CCCCC1)c[n+]2C | 20 |  |
| CN(C)C(=O)Oc1cccc2c1cc(C(=O)NCCOCCO)c[n+]2C | 37 |  |
| CN(C)C(=O)Oc1cccc2c1cc(C(=O)Nc1ccccc1)c[n+]2C | 30 |  |
| Cc1c(C(=O)N(C)C)c[n+](C)c2cccc(OC(=O)N(C)C)c12 | > 10000 |  |
| COCCNC(=O)c1cc2c(OC(=O)N(C)C)cccc2[n+](C)c1 | 20 |  |
| CC[n+]1cc(C(=O)NC)cc2c(OC(=O)N(C)C)cccc21 | 314 |  |

— ChEMBL document CHEMBL4152292, “Rational design of carbamate-based dual binding site and central AChE inhibitors by a "biooxidisable" prodrug approach: Synthesis, in vitro evaluation and docking studies” (Eur J Med Chem, 2018)
